{
  "source": "paper PMC6906394",
  "about": "“Radiomodifying action, Pharmacokinetic and Biodistribution of Ethyl 3, 4, 5-trihydroxybenzoate-Implication in development of radiomitigator” (Scientific Reports, 2019)",
  "key": {"[1]": {"assay": "Stability of GAE in mice plasma and liver homogenate (QC samples)", "format": "in vitro ADME", "details": "for Stability % Long term: 2 week of storage at −20 °C; for freeze-thaw stability (fraction remaining) at 50 ng/mL / freeze-thaw stability (fraction remaining) at 250 ng/mL / freeze-thaw stability (fraction remaining) at 500 ng/mL: mouse, three consecutive freeze thaw cycles (−20 °C to room temperature)", "experimental": "The recovery of GAE at three concentration was 79.3, 89.6 and 99.2% in plasma. […] The analyte were also shown to be stable in the plasma at room temperature for atleast 8 h with a reduction of less than 12–15% (Table 1). Based on the result reliable, reproducible and robust method has been developed and validated.\nStandard stock solutions of GAE at 1 mg/mL were prepared and dissolved in appropriate amounts of diluent stock, water, and methanol (8:2 v/v). GAE was adequately diluted with diluent stock to give an intermediate solution at 100 µg/mL for each analyte. GAE calibration standards were at concentration of 5, 10, 20, 30, 40, 50, 100, 250, 500 ng/mL. Internal standard propyl gallate (PG) were prepared to spiked aliquots of blank mouse plasma (200 µL). […] combined spiking solution at a final concentration of 5, 10, 20, 40, 50, 100, 250, 500 and 1000 ng/mL were prepared and used to spike aliquots of blank tissue homogenates of Liver, kidney, heart, brain, and spleen (400 µL). The entire sample was stored at 4 °C. Quality control samples were prepared independently in the same biological matrices (plasma and tissue homogenate of liver) stored at −20 °C until use with each analytical run. Intra-day and inter-day precision were assessed by using six replicate QC samples at three levels of GAE included in each run to determine the accuracy and precision. […] The inter-day accuracy and precision were assessed by analyzing three batches on different days. The recoveries of GAE from plasma and tissue (liver) homogenate samples were done at three QC levels. The recovery of the analyte was calculated by comparing the analyte peaks of extracted QC samples against the equivalent aqueous solution.\nThe QC samples were kept at room temperature for 6 h and a freeze-thaw cycle (−80 °C) was repeated for three times. […] For all storage conditions, replication of three concentrations was analyzed after the operation and the experimental result was obtained through a chromatographic area and compared with the nominal values. On the basis of previous studies reported on pharmacokinetic and biodistribution[22],[23], we standardized and validated our study to further investigate the radiomodifying action of GAE."}, "NF-kB": {"tested_on": "NF-kB", "assay": "Quantification of NF-kB in liver and kidney by indirect ELISA", "format": "in vivo, mice", "details": "GAE 200 mg/kg oral 15 min after 5 Gy whole body irradiation, p < 0.05, upto 8 h", "experimental": "Black C57BL/6 male mice weighing 28–30 g were maintained at the Institutional Animal Experimental Facility. Animals were fed according to standard chow diet having free access to food and water ad libitum. The environmental condition was maintained at room temperature (22 ± 2 °C), relative humidity (45–60%) and 12 h dark/light cycle controlled facility. In this study, mice were randomly assigned to four different groups (n = 21) i.e untreated control (UC), GAE-treated (GAE), Radiation + GAE (R + GAE), Radiation group (R). Mice fasted overnight with free access to water before being dosed. Isolated GAE from leaves was dissolved with distilled water and ethanol in (7:3 v/v) and administered orally at a dose of 200 mg/kg body weight to GAE-treated and R + GAE treated groups only. […]\nMeasurement of NF-kB activity was done in accordance to the manufacturer’s protocol purchased from BD-biosciences. […] After development of colour 50 µl of stop solution was added to the wells and absorbance was recorded at 490 nm. A standard curve was prepared from the data produced from the serial dilution of the pure NF-kB proteins with concentration on the x-axis (log scale) vs absorbance on the Y-axis (linear)."}},
  "note": "Entries after “also recorded” stand apart in the source; their conditions may differ.",
  "data": [
    {"smiles": "CCOC(=O)c1cc(O)c(O)c(O)c1", "note": "[GAE, Ethyl 3,4,5-trihydroxybenzoate]", "values": [
      {"measurement": "reduction after freeze-thaw cycle", "setting": "[1]; freeze-thaw cycle", "value": "less than 8%"},
      {"measurement": "Stability % Long term", "setting": "[1]; liver, 50 ng/mL", "value": "62.6 ± 24.5", "unit": "%"},
      {"measurement": "Stability % Short term", "setting": "[1]; liver, 50 ng/mL, room temperature for 24 h", "value": "66.9 ± 22.18", "unit": "%"},
      {"measurement": "Stability % Long term", "setting": "[1]; liver, 250 ng/mL", "value": "79.26 ± 6.06", "unit": "%"},
      {"measurement": "Stability % Short term", "setting": "[1]; liver, 250 ng/mL, room temperature for 24 h", "value": "86.8 ± 1.7", "unit": "%"},
      {"measurement": "Stability % Long term", "setting": "[1]; liver, 500 ng/mL", "value": "95.13 ± 7.6", "unit": "%"},
      {"measurement": "Stability % Short term", "setting": "[1]; liver, 500 ng/mL, room temperature for 24 h", "value": "99.9 ± 0.47", "unit": "%"},
      {"measurement": "freeze-thaw stability (fraction remaining) at 50 ng/mL", "setting": "[1]; liver homogenate, liver, 50 ng/mL", "value": "0.648 ± 0.049"},
      {"measurement": "freeze-thaw stability (fraction remaining) at 250 ng/mL", "setting": "[1]; liver homogenate, liver, 250 ng/mL", "value": "0.842 ± 0.025"},
      {"measurement": "freeze-thaw stability (fraction remaining) at 500 ng/mL", "setting": "[1]; liver homogenate, liver, 500 ng/mL", "value": "0.978 ± 0.049"},
      {"measurement": "freeze-thaw stability (fraction remaining) at 50 ng/mL", "setting": "[1]; plasma, 50 ng/mL", "value": "0.79 ± 0.0225"},
      {"measurement": "freeze-thaw stability (fraction remaining) at 250 ng/mL", "setting": "[1]; plasma, 250 ng/mL", "value": "0.901 ± 0.0093"},
      {"measurement": "freeze-thaw stability (fraction remaining) at 500 ng/mL", "setting": "[1]; plasma, 500 ng/mL", "value": "0.9342 ± 0.0037"},
      {"measurement": "Stability % Long term", "setting": "[1]; plasma, 50 ng/mL", "value": "70.32 ± 1.37", "unit": "%"},
      {"measurement": "Stability % Short term", "setting": "[1]; plasma, 50 ng/mL, room temperature for 24 h", "value": "79.35 ± 1.37", "unit": "%"},
      {"measurement": "Stability % Long term", "setting": "[1]; plasma, 250 ng/mL", "value": "87.55 ± 0.635", "unit": "%"},
      {"measurement": "Stability % Short term", "setting": "[1]; plasma, 250 ng/mL, room temperature for 24 h", "value": "89.67 ± 1.58", "unit": "%"},
      {"measurement": "Stability % Long term", "setting": "[1]; plasma, 500 ng/mL", "value": "92.01 ± 0.179", "unit": "%"},
      {"measurement": "Stability % Short term", "setting": "[1]; plasma, 500 ng/mL, room temperature for 24 h", "value": "99.25 ± 0.120", "unit": "%"},
      {"measurement": "reduction in plasma at room temperature", "setting": "[1]; plasma, room temperature for at least 8 h", "value": "12–15%"},
      {"measurement": "stability at room temperature", "setting": "[1]; room temperature for 24 h, plasma and tissue samples", "value": "stable"},
      {"measurement": "stability at −20 °C", "setting": "[1]; −20 °C for one month", "value": "stable"},
      {"measurement": "NF-kB level/expression in liver and kidney compared to irradiated mice", "setting": "NF-kB", "value": "inhibits NF-kB expression; also recorded: significant minimal expression; also recorded: significantly inhibits; also recorded: significantly reduces"}
    ]}
  ]
}
